Measurements from ChEMBL document CHEMBL3046762, “Synthesis and biological evaluation of 2-amino-5-sulfanyl-1,3,4-thiadiazole derivatives as antidepressant, anxiolytics and anticonvulsant agents” (2011).
Active and inactive are the calls of the source. The rule behind the calls is not given here.

Columns and labels:
Rattus norvegicus [1] = experiment: Anticonvulsant activity in Rattus norvegicus Wistar albino (rat) assessed as inhibition of pentyleneterazole-induced clonic convulsion measured as onset of convulsion at 30 mg/kg, ip pretreated 30 min prior to pentylenetetrazole challenge (reference value: 48.25 +/- 0.01 sec); format: functional; settings: route intraperitoneal
Rattus norvegicus [2] = experiment: Anticonvulsant activity in Rattus norvegicus Wistar albino (rat) assessed as reduction in pentyleneterazole-induced mortality at 30 mg/kg, ip pretreated 30 min prior to pentylenetetrazole challenge; format: functional, organism-based; set-up: dose 30 mg/kg
Mus musculus [3] = experiment: Anxiolytic activity in Mus musculus Swiss (mouse) assessed as time spent in light chamber at 30 mg/kg, ip measured after 30 min by light and dark model test (reference value: 130.2 +/- 0.01 sec); format: functional; settings: route intraperitoneal
Rattus norvegicus [4] = experiment: Anticonvulsant activity in Rattus norvegicus Wistar albino (rat) assessed as duration of tonic hind limb extensor at 30 mg/kg, ip measured after 30 min by maximal electroshock-induced convulsion test (reference value: 15.71 +/- 0.01 sec); format: functional, Hindlimb; settings: route intraperitoneal
Rattus norvegicus [5] = experiment: Anticonvulsant activity in Rattus norvegicus Wistar albino (rat) assessed as protection against maximal electroshock-induced convulsion at 30 mg/kg, ip measured after 30 min; format: functional; settings: route intraperitoneal
Mus musculus [6] = experiment: Anxiolytic activity in Mus musculus balb/cj (mouse) assessed as preference to open arm at 30 mg/kg, ip measured after 30 min by elevated pluze maze test; format: functional; settings: route intraperitoneal
Mus musculus [7] = experiment: Anxiolytic activity in Mus musculus balb/cj (mouse) assessed as time spent in open arm at 30 mg/kg, ip measured after 30 min by elevated pluze maze test (reference value: 12.25 +/- 0.02 sec); format: functional; settings: route intraperitoneal
Mus musculus [8] = experiment: Antidepressant activity in Mus musculus (mouse) assessed as increase in mobile phase at 30 mg/kg, ip measured after 30 min by tail suspension test; format: functional; settings: route intraperitoneal
Mus musculus [9] = experiment: Antidepressant activity in Mus musculus (mouse) assessed as decrease in immobility at 30 mg/kg, ip measured after 30 min by despair swim test; format: functional; settings: 0.5 h, route intraperitoneal
Mus musculus [10] = experiment: Anxiolytic activity in Mus musculus balb/cj (mouse) assessed as time spent in open arm at 2 mg/kg, ip measured after 30 min by elevated pluze maze test (reference value: 12.25 +/- 0.02 sec); format: functional; settings: route intraperitoneal
Mus musculus [11] = experiment: Antidepressant activity in Mus musculus (mouse) assessed as decrease in immobility at 15 mg/kg, ip measured after 30 min by despair swim test; settings: 0.5 h, read-out: INH
Rattus norvegicus [12] = experiment: Anticonvulsant activity in Rattus norvegicus Wistar albino (rat) assessed as duration of tonic hind limb extensor at 25 mg/kg, ip measured after 30 min by maximal electroshock-induced convulsion test; format: functional, organism-based; set-up: dose 25 mg/kg; settings: Hindlimb
Rattus norvegicus [13] = experiment: Anticonvulsant activity in Rattus norvegicus Wistar albino (rat) assessed as protection against maximal electroshock-induced convulsion at 25 mg/kg, ip measured after 30 min; format: functional; settings: route intraperitoneal
Rattus norvegicus [14] = experiment: Anticonvulsant activity in Rattus norvegicus Wistar albino (rat) assessed as reduction in pentyleneterazole-induced mortality at 4 mg/kg, ip pretreated 30 min prior to pentylenetetrazole challenge; format: functional, organism-based; set-up: dose 4 mg/kg

Compound | Time (Rattus norvegicus [1]) [s] | Activity (Rattus norvegicus [2]) | Time (Mus musculus [3]) [s] | Time (Rattus norvegicus [4]) [s] | Activity (Rattus norvegicus [5]) [%] | Activity (Mus musculus [6]) [%] | Time (Mus musculus [7]) [s] | Activity (Mus musculus [8]) [%] | inhibition in vivo at 30 mg/kg (Mus musculus [9]) [%] | Time (Mus musculus [10]) [s] | inhibition in vivo at 15 mg/kg (Mus musculus [11]) [%] | Activity (Rattus norvegicus [12]) | Activity (Rattus norvegicus [13]) [%] | Activity (Rattus norvegicus [14])
O=S(=O)(Cl)c1ccc(Nc2nnc(Sc3ccc(S(=O)(=O)Cl)cc3)s2)cc1 | 125.2 | Active | 172.5 | 8.5 | 0 | 7.9 | 27.63 | 10.09 | 25.9 |  |  |  |  | 
NS(=O)(=O)c1ccc(Sc2nnc(Nc3ccc(C(Cl)(Cl)Cl)cc3)s2)cc1 | 106.7 | Active | 162 | 6.96 | 16.66 | 7.85 | 24.2 | 16.39 | 25 |  |  |  |  | 
O=S(=O)(Cl)c1ccc(Sc2nnc(Nc3ccc(C(Cl)(Cl)Cl)cc3)s2)cc1 | 99.9 | Active | 170.5 | 7.01 | 16.66 | 8.75 | 26.2 | 19.16 | 30.2 |  |  |  |  | 
CNCCC(Oc1ccc(C(F)(F)F)cc1)c1ccccc1.Cl (stereo not drawn) [FLUOXETINE HYDROCHLORIDE] |  |  |  |  |  |  |  |  |  | 60.01 | 58.6 |  |  | 
NS(=O)(=O)c1ccc(Sc2nnc(Nc3ccc(F)cc3)s2)cc1 | 171.25 | Active | 185.9 | 4.5 | 66.66 | 18.01 | 46.31 | 40.31 | 50.5 |  |  |  |  | 
NS(=O)(=O)c1ccc(Sc2nnc(Nc3ccc(Br)cc3)s2)cc1 | 71.9 | Active | 162.3 | 8.01 | 33.33 | 8.01 | 29.26 | 15.68 | 27.2 |  |  |  |  | 
NS(=O)(=O)c1ccc(Sc2nnc(Nc3ccc(C(F)(F)F)cc3)s2)cc1 | 126.2 | Active | 151.26 | 7.37 | 33.33 | 8.92 | 23.72 | 31.29 | 27.9 |  |  |  |  | 
O=S(=O)(Cl)c1ccc(Sc2nnc(Nc3ccc(Br)cc3)s2)cc1 | 70.25 | Active | 159.3 | 7.63 | 0 | 9.25 | 25.2 | 20.57 | 30.7 |  |  |  |  | 
O=C1NC(=O)C(c2ccccc2)(c2ccccc2)N1 [PHENYTOIN] |  |  |  |  |  |  |  |  |  |  |  | Active | 100 | 
NS(=O)(=O)c1ccc(Sc2nnc(Nc3ccc(S(=O)(=O)Cl)cc3)s2)cc1 | 175.2 | Active | 180.25 | 4.69 | 50 | 17.2 | 45.93 | 40.58 | 50.4 |  |  |  |  | 
O=S(=O)(Cl)c1ccc(Sc2nnc(Nc3ccc(F)cc3)s2)cc1 | 101.26 | Active | 166.3 | 8.25 | 0 | 10.54 | 25.26 | 21.51 | 22.8 |  |  |  |  | 
NS(=O)(=O)c1ccc(Sc2nnc(Nc3ccc(Cl)cc3)s2)cc1 | 151.3 | Active | 178.2 | 5.17 | 50 | 16.35 | 45.51 | 33.33 | 29.2 |  |  |  |  | 
Cc1ccc(Nc2nnc(Sc3ccc(S(=O)(=O)Cl)cc3)s2)cc1 | 101.26 | Active | 169.25 | 8.01 | 16.66 | 7.58 | 22.2 | 15.19 | 29.2 |  |  |  |  | 
Cc1ccc(Nc2nnc(Sc3ccc(S(N)(=O)=O)cc3)s2)cc1 | 170.26 | Active | 190.25 | 4.52 | 50 | 18.25 | 45.69 | 42.21 | 51.5 |  |  |  |  | 
O=S(=O)(Cl)c1ccc(Sc2nnc(Nc3ccc(Cl)cc3)s2)cc1 | 63.6 | Active | 151.5 | 7.55 | 16.66 | 9.75 | 30.01 | 15.68 | 23.9 |  |  |  |  | 
CN1C(=O)CN=C(c2ccccc2)c2cc(Cl)ccc21 |  |  |  |  |  |  |  |  |  |  |  |  |  | Active
NS(=O)(=O)c1ccc(Nc2nnc(Sc3ccc(S(N)(=O)=O)cc3)s2)cc1 |  |  | 133.2 | 8.25 | 0 | 6.65 | 26.64 | 10.06 | 25.2 |  |  |  |  | 
O=S(=O)(Cl)c1ccc(Sc2nnc(Nc3ccc(C(F)(F)F)cc3)s2)cc1 | 180.25 | Active | 192 | 4.42 | 66.66 | 18.92 | 47.92 | 45.97 | 53.5 |  |  |  |  | 
